Source: PMC8466300, “Investigating the Central Nervous System Disposition of Actinomycin D: Implementation and Evaluation of Cerebral Microdialysis and Brain Tissue Measurements Supported by UPLC-MS/MS Quantification” (Pharmaceutics, 2021)

Test: Reverse-phase UPLC retention relative to actinomycin D
Type: physicochemical
Conditions: Peptide BEH C18 300 Å, gradient 40–100% ACN + 0.1% FA, 60 °C
Method: The injected sample volume was 20 µL.
For chromatography optimization we tested reverse phase columns (C18 and C4) due to actinomycin D´s high lipophilicity. We used reverse phase material with a large pore width of 300 Å because large pore widths usually foster optimal mass transfer kinetics for macromolecules. Chromatographic peak shape and separation performed better on the C18 column. In accordance with the high lipophilicity of actinomycin D, a gradient from 40–100% eluent B was found optimal and yielded peaks with a width at baseline of 6 s (Figure 2).

Substance	shift in reverse-phase retention relative to actinomycin D
7-amino actinomycin D	large hydrophilic shift in retention time
Actinomycin C	only a minimal lipophilic shift
